Results published in paper PMC11706957 (Scientific Reports, 2025).
Several values for one entry are separate records, joined by “and”; a condition that tells them apart may be missing. Identical values can stand only once.

Assays:
DYRK1B [1] = molecular target: T1, DYRK1B (Homo sapiens, UniProt Q9Y463); design: method as in Dirice et al. 2016; settings: reference activity value, ref Dirice et al. 2016; cited from earlier work
T1 construct: purchased ThermoFisher Scientific

DYRK1B [2] = molecular target: T1, DYRK1B; assay: Lantha (TR-FRET) kinase binding assay
Description: Kinase binding activity was performed as described in[23]. Briefly, a 12-points dilution series of the compounds was prepared in DMSO and further diluted 1:33 in assay buffer A (50 mM HEPES (Sigma-Aldrich) pH 7.5, 10 mM MgCl2 (Sigma-Aldrich) 1 mM EGTA (Sigma-Aldrich) and 0.01% BRIJ-35 (ThermoFisher Scientific, Waltham, MA, USA). The GST tagged kinases, antibodies and tracer were purchased from ThermoFisher Scientific. DYRK1A and DYRK1B were each mixed with rabbit anti GST Europium tagged antibody in assay buffer A at concentrations of 15 nM kinase and 6 nM antibodies. Tracer 236 was diluted to 90 nM (DYRK1A) or 30 nM (DYRK1B) in assay buffer A. Finally, the kinase-antibody solution, compound solution and tracer solution were mixed together 1:1:1 (5µL each) in white, non-binding, round bottom 384 well microplates (Corning Inc, Kennebunk, ME, USA) mixed at 1000 rpm for 1 min and incubated in the dark at RT in humid atmosphere for 1 h. Fluorescence measurements were taken using a EnVision 2104 Multilabel reader (PerkinElmer, Shelton, CT, USA), excitation wavelength was set to 340 nm and emission was read at both 615 nm (8.5 nm bandwidth) and 665 nm (7.5 nm bandwidth) over 200ms with a 100ms delay between excitation and emission measurements. Emission ratio signals (EM) were calculated as the ratio between the 665 nm signal and the 615 nm signal. […]

48 cell lines = tested on: 48 cell lines; design: method as in PMID 31647655; settings: cited from earlier work
[3] = tested on: phospho-dyrk1a/b (Tyr321, Tyr273); assay: Western blot of phosphorylated DYRK1A/B; format: cell-based, rat; settings: 48 h, no cytokines
Description: (§1) RIN-M5F cells were seeded in 6-well plates, 6 × 10^5 cells/well. […] After centrifugation (16.9 RCF, 15 min at 4 °C) the samples were directly diluted in NuPAGE™ LDS Sample Buffer (4X, Invitrogen) supplemented with NuPAGE™ Sample Reducing Agent (10X, Invitrogen), boiled at 95 °C for 5min and loaded on gel (NuPAGE™ 4–12%, Bis-Tris, Invitrogen). Protein transfer to PVDF membrane was performed by the iBlot™ dry blotting system (Invitrogen) according to manufacturer’s instructions. The membrane was blocked using SuperBlock™ Blocking Buffer (Thermo Fisher Scientific) and subsequently cut in half around 60 kDA, the top half was incubated with primary antibodies for phospho-dyrk1a/b (Tyr321, Tyr273) (1:500, Invitrogen, ref: PA5-64574), while the bottom half was incubated with phospho-p27^kip1 (Ser10) (1:200, Invitrogen, ref:34-6300) over night at 4 °C. After washing, the membrane was incubated with Alexa488-conjugated secondary antibody (1:5000, goat anti-rabbit, Invitrogen) for 2 h and imaged with a PharoxFX imager (Bio-Rad, Hercules, CA, USA). […] Protein quantification was performed with ImageJ (National Institutes of Health, Bethesda MD, USA), using the gel analysis tool to get the integrated pixel intensity for each band.

RIN-M5F cells [4] = assay: EdU incorporation (flow cytometry); format: cell-based, rat; settings: for Average increase of EdU + labelling: versus untreated
Description: (§2) Rat beta cells RIN-M5F (purchased from ATCC, Manassas, VA, USA, product code ATCC-CRL-11605, passage number below 40 for all experiments presented in this manuscript) were cultured in RPMI-1640 (cat# R5886, Sigma-Aldrich, Saint Louis, MO, USA) supplemented with 10% FBS (Biowest, Nauillé, France), 2 mM L-glutamine (Biowest), 1 mM sodium pyruvate (Merck, Darmstadt, Germany) and 1x Penicillin-Streptomycin (Sigma-Aldrich) according to manufacturer’s instructions. Cells were seeded 3 days before the start of each experiment to allow full attachment. In experiments analysing the effects of cytokines, cells were treated with 20 ng/ml human IL-1β and 20 ng/ml rat IFNγ (Peprotech, Rocky Hill, NJ, USA) for a given time as indicated. Mycoplasma was tested as negative using MycoAlert® Mycoplasma Kit (Lonza, Basel, Switzerland).
RIN-M5F cells were seeded into 6 well plates, 6 × 10^5 cells per well. […] Subsequently, the cells were stained with 10 µM Click-iT EdU (Invitrogen, Waltham, MA, USA) for 2 h, and analysed by flow cytometry (CytoFLEX, Beckman Coulter, Brea, CA, USA) according to the manufacturer’s instructions. EdU incorporation was analysed using the CytExpert software.

DYRK3 = molecular target: T2, DYRK3 (Homo sapiens, UniProt O43781); assay: Kinase activity assay (33P-ATP radioactive filter binding); format: biochemical; settings: duplicate 10-point concentration curve, mean ± SD
T2 sequence (O43781 1-588): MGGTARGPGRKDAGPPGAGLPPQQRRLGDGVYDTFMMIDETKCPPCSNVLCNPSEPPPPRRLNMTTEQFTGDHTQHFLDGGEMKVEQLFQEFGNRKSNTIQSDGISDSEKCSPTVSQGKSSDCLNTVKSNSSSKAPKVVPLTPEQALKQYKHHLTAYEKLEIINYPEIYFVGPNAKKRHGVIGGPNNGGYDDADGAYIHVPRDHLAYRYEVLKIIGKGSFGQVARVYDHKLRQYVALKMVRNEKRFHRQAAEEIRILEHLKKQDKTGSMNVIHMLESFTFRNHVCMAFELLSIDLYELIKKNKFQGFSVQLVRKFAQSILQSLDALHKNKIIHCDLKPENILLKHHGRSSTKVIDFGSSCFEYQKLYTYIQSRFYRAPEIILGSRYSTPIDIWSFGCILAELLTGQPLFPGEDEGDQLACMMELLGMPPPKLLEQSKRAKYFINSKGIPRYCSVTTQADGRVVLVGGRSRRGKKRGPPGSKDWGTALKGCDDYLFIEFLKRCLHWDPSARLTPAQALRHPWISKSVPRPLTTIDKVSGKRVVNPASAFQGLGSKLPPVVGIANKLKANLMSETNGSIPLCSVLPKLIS
Description: (§3) Each kinase was assayed using a duplicate 10-point concentration curve.

DYRK2 = molecular target: T3, DYRK2 (Homo sapiens, UniProt Q92630); assay: as above; format: biochemical; settings: duplicate 10-point concentration curve, mean ± SD
T3 sequence (Q92630 1-601): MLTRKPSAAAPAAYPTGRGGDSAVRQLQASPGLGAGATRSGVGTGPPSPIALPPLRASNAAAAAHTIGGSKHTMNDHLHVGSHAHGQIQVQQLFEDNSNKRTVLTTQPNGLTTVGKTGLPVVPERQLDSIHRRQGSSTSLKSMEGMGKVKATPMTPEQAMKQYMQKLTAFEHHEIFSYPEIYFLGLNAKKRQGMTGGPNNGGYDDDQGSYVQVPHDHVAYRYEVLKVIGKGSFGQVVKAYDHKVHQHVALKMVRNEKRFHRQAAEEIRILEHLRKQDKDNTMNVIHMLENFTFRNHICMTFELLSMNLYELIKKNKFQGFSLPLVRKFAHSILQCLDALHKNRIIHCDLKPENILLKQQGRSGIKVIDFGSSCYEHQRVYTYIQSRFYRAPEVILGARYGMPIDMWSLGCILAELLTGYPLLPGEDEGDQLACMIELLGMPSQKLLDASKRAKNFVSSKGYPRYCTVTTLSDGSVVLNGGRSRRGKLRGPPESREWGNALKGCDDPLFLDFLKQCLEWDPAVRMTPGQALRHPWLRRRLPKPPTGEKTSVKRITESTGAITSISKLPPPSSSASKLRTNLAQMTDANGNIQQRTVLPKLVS
Description: as §3

RIN-M5F cells [5] = assay: Caspase 3/7 activity (Caspase-Glo); format: cell-based, rat
Description: as §2
RIN-M5F cells were cultured in 96-well plates, 2 × 10^4 cells/well. […] Caspase 3/7 activity was measured by Caspase-Glo (Promega) according to the manufacturer’s instructions. Each experiment was performed in triplicates.

RIN-M5F cells [6] = assay: Cell cycle distribution (PI staining, flow cytometry); format: cell-based, rat
Description: as §2
RIN-M5F cells were seeded in 6-well plates, 6 × 10^5 cells/well. […] After stimulation, the cells were washed with phosphate buffered saline (PBS) and trypsinated for 5 min at 37 °C, and fixed in ice-cold ethanol (70%) at 4 °C until analysis. The cells were stained by FxCycle™ PI/RNase Staining Solution kit (Invitrogen) according to manufacturer’s instructions and analysed by flow cytometry (CytoFLEX, Beckman Coulter). The percentages of cells in G1, S1 and G2/M was determined using the CytExpert software.

phospho-p27^kip1 (Ser10) = assay: Western blot of phosphorylated p27KIP; format: cell-based, rat; settings: 48 h, no cytokines
Description: as §1

HepG2 cells = assay: EdU incorporation in HepG2 cells; format: cell-based; settings: 10 µM BfC versus untreated
Text: Supplementary Figure S2. Redocking of harmine in DYRK1A. The interactions between the compounds and the kinase hinge are identical (red circles) in both calculated and experimental model. […]
compounds are shown as cartoon, with blue for nitrogen atoms, white for hydrogen, red for oxygen, purple for iodine and either orange (experimental) or green (docked) for carbon atoms. The protein active site is shown as a grey surface and important residues are shown as wire, dashed line represent […]
µM). Open bars: EdU negative cells. Closed bars: EdU positive cells. Closed circles: Untreated cells. […]

RIN-M5F cells [7] = assay: Cell viability (MTS, CellTiter 96 AQueous One) in cytokine-treated cells; format: cell-based, rat
Description: as §2
RIN-M5F cells were cultured in 96-well plates, 2 × 10^4 cells/well. […] Control wells with RPMI-1640 alone or supplemented with DMSO (Sigma-Aldrich, final concentration 10%) were used to estimate absorbance at 100% or 0% viability, respectively. […] The cells were thereafter incubated for an additional 72 h, and cell viability was measured by CellTiter 96®AQueous One Solution Assay (Promega, Madison, WI, USA) according to the manufacturer’s instructions. Absorbance at 490 nm was measured using a Spark® multimode microplate reader (Tecan, Männedorf, Switzerland). […]

[8] = 20 µM, cells treated with cytokines

T1 sequence (Q9Y463 whole entry): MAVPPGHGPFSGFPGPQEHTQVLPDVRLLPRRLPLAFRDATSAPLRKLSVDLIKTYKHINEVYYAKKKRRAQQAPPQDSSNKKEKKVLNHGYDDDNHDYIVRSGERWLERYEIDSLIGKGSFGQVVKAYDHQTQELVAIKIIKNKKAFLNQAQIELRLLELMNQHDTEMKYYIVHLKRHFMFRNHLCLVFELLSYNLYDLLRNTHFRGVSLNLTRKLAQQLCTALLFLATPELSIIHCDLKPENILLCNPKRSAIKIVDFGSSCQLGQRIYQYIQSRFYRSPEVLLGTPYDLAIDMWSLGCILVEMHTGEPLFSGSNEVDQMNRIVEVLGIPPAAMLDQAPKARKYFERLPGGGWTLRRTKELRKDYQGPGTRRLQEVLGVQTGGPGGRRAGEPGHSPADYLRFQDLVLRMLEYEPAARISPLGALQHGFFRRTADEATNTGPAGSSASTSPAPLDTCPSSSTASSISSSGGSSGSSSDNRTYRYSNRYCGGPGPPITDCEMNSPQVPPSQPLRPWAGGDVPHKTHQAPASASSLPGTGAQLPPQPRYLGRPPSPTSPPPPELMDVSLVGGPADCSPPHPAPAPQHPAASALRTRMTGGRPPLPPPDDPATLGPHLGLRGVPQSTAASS

For `Nc1ncnc2c1c(I)cn2[C@@H]1O[C@H](CO)[C@@H](O)[C@H]1O` [5IT, reference compound], the IC50 (DYRK1B [1]) is listed as 0.01 µM and the Kd (DYRK1B [2]; lanthaScreen, 95% confidence interval in bracket) is listed as 0.0024 µM.
For `COc1cc2c(-c3cnc(-c4ccc[nH]4)o3)c[nH]c2cc1Br` [BfC, breitfussin C], the “Concentration at which cytotoxic to 48 cell lines” value (48 cell lines) is given as ≤ 10 µM, the “Decrease of expression of p-DYRK1A/B compared to control” value ([3]; 10 µM) is given as “approximately 50%” and the “Decrease of expression of p-DYRK1A/B compared to control” value ([3]; 20 µM) is given as ~62%. For the same compound, the “EdU + labelling rate” value (RIN-M5F cells [4]; 10 µM pretreatment, cytokine treated cells, cytokines alone 7.7 ± 0.8%) was 8.8 ± 0.8%, the “Average increase of EdU + labelling” value (RIN-M5F cells [4]; 10 µM, without cytokines) was 12.5% and the “EdU + labelling rate” value (RIN-M5F cells [4]; 10 µM, without cytokines, untreated 15.2 ± […]) was 17.1 ± 0.9%. The “EdU + labelling rate” value (RIN-M5F cells [4]; 20 µM pretreatment, cytokine treated cells, cytokines alone 7.7 ± 0.8%) was 11.0 ± 1.1%, the “Average increase of EdU + labelling” value (RIN-M5F cells [4]; 20 µM, without cytokines) was 21.1% and the “EdU + labelling rate” value (RIN-M5F cells [4]; 20 µM, without cytokines, untreated 15.2 ± […]) was 18.4 ± 1.5%. The IC50 (DYRK3) was 4.4 ± 0.8 µM, the IC50 (DYRK2) was 1.4 ± 0.5 µM and the “Caspase 3/7 activity compared to control” value (RIN-M5F cells [5]; 10 µM pretreatment 24 h before cytokines, cytokines alone 199%) was 210 ± 15%. The “Caspase 3/7 activity compared to control” value (RIN-M5F cells [5]; 10 µM, 48 h, without cytokines) was 127 ± 2%, the “Caspase 3/7 activity compared to control” value (RIN-M5F cells [5]; 20 µM pretreatment 24 h before cytokines, cytokines alone 199%) was 241 ± 20% and the “Caspase 3/7 activity compared to control” value (RIN-M5F cells [5]; 20 µM, 48 h, without cytokines) was 186 ± 19%. For the same compound, the “Change of cells in G0/G1 phase” value (RIN-M5F cells [6]; 10 µM, without cytokines) was “significantly decreased”, the “Change of cells in S and G2/M phase” value (RIN-M5F cells [6]; 10 µM, without cytokines) was “increased” and the “Number of cells in G0/G1” value (RIN-M5F cells [6]; 20 µM, 48 h, without cytokines, control 76.9 ± 0.6%) was 66.6 ± 1.3%. The “Change of cells in S and G2/M phase” value (RIN-M5F cells [6]; [8]) was “increased”, the “Change of number of cells in G0/G1” value (RIN-M5F cells [6]; [8]) was “significantly decreased” and the “Change of cells in S and G2/M phase” value (RIN-M5F cells [6]; 20 µM, without cytokines) was “increased”. The “Decrease of expression of p-p27^KIP compared to control” value (phospho-p27^kip1 (Ser10); 10 µM) was 23%, the “Decrease of expression of p-p27^KIP compared to control” value (phospho-p27^kip1 (Ser10); 20 µM) was 42% and the “EdU incorporation in HepG2 cells” value (HepG2 cells) was “decreased”. The Kd (DYRK1B [2]; TR-FRET, approximate because of compound autofluorescence) was ~9 µM and 9 µM, the “Protective effect against cytokine-induced cell death at higher concentrations” value (RIN-M5F cells [7]; concentrations above 10–20 µM (up to 40 µM), with cytokines) was “lost” and the “Concentration range of effective protection against cytokine-induced cell death” value (RIN-M5F cells [7]; dose-response 1.25-40 µM with cytokines) was 10 to 20 µM.
